In patent publication US5130253A, “DNAs Encoding mosquito oostatic hormones” (University of Florida, priority 1991, dated 1992):
Where no end group is shown, it is not given here.

What was measured:
[1] = test system: Aedes aegypti; assay: Inhibition of egg (ovarian) development after injection into blood-fed females; format: in vivo; conditions: for Inhibition of egg development / Yolk length: 24 hours; for Effect compared with natural, purified oostatic hormone: injection
Description: (§1) Female insects were injected with 0.5 μl to 1.0 μl hormone solution
(§2) of analog 1 or saline and analyzed 24 hours later for egg development.
(§3) The insects were evaluated for the effect of oostatic hormone 24 hours after injecting the hormone by dissecting out the ovaries and measuring the yolk in each follicle, or by dissecting out the midgut and determining trypsin biosynthesis as was described by Borovsky, D. (1988), Arch. Insect Biochem. Physiol. 8:249-260. We believe that we have discovered an effective method that can interfere with the biosynthesis of serine esterases (trypsinlike or chymotrypsinlike enzymes) in the midgut of insects.
(§4) (a) Female Aedes aegypti were fed blood on a chicken, lightly anesthetized with ether, and immediately injected with different concentrations (1 to 5 μg; 0.25 to 0.5 μl) of synthetic analogs of oostatic hormone (1 and 2). […] Twenty-four hours after the injection of oostatic hormone analogs, or water as a control, egg development and trypsinlike enzyme biosynthesis was determined (Borovsky, D. (1988), Arch, Ins. Biochem. Physiol. 7:187-210). (See Table 2)
Groups of female Aedes aegypti were injected with 0.5 to 0.25 μl of
oostatic hormone analogs, or with 0.5 μl of water as control.

[2] = test system: stableflies; assay: Topical application in DMSO; format: in vivo; conditions: 10 to 20 μg topically in 1 to 10 μl of DMSO; 24 hours after treatment
Description: (§5) (b) Another procedure was to dissolve oostatic hormone analogs (1) or (2) in a solvent that might facilitate transport through the cuticular barrier into hemolymph. Dimethylsulfoxide was used and 10 to 20 μg of (1) or (2) was applied topically to houseflies and stableflies in 1 to 10 μl of DMSO.

[3] = test system: houseflies; assay: Topical application in DMSO; format: in vivo; conditions: 10 to 20 μg topically in 1 to 10 μl of DMSO; 24 hours after treatment
Description: as §5

[4] = test system: Aedes aegypti; assay: Toxicity (mortality) of injected mosquitoes; format: in vivo; conditions: 1 to 5 μg injected in 0.25 to 0.5 μl
Description: as §4

[5] = test system: trypsinlike enzymes biosynthesis; assay: Inhibition of trypsinlike enzyme biosynthesis in the midgut after injection; format: in vivo, Aedes aegypti; conditions: 2.86 nmol injected; 24 hours later
Description: as §1, §2, §3, §4

[6] = test system: trypsinlike enzymes biosynthesis; assay: Inhibition of trypsin synthesis after injection; format: in vivo, Ctenocephalides felis (bouche); conditions: 0.477 nmol injected; 24 hours later
Description: as §1, §2, §3

[7] = test system: trypsinlike enzymes biosynthesis; assay: Inhibition of trypsin synthesis after injection; format: in vivo, Stomoxys calcitrans; conditions: 4.77 nmol injected; 24 hours later
Description: as §1, §2, §3

[8] = test system: trypsinlike enzymes biosynthesis; assay: Inhibition of trypsin synthesis after injection; format: in vivo, Musca domestica; conditions: 4.77 nmol injected; 24 hours later
Description: as §1, §2, §3

[9] = test system: trypsinlike enzymes biosynthesis; assay: Inhibition of trypsin synthesis after injection; format: in vivo, Lutzomyia anthophora; conditions: 0.477 nmol injected; 24 hours later
Description: as §1, §2, §3

[10] = format: in vitro ADME, mosquito
From the text: The structure of these peptides render them undigestible with known endopeptidases (i.e. proteolytic enzymes like trypsin, pronase, etc.). The peptides were not affected by 1% trifluoroacetic acid and were routinely purified using this acid on HPLC. DNA sequences encoding the peptides of the invention can be used as probes to locate the genes expressing these peptides.

[11] = test system: Lutzomyia anthophora; assay: Inhibition of ovarian development after injection; format: in vivo; conditions: 0.477 nmol injected; 24 hours later
Description: as §1, §2, §3

[12] = test system: Anopheles albimanus; assay: Inhibition of ovarian development after injection; format: in vivo; conditions: 1.83 nmol injected; 24 hours later
Description: as §1, §2, §3

[13] = test system: Culex quinquefasciatus; assay: Inhibition of ovarian development after injection; format: in vivo; conditions: 3.6 nmol injected; 24 hours later
Description: as §1, §2, §3

**Q.** Which “Inhibition of egg development” value ([1]; 0.96 μg (0.92 nmol) injected) does the source give for DYPAPPPPPP [analog 2, H2 NDYPAP6 COOH] here?
**A.** 62%

**Q.** And the Yolk length ([1]; 0.96 μg (0.92 nmol) injected)?
**A.** 102 ± 11 μm

**Q.** What about the “Inhibition of egg development” value ([1]; 1.92 μg (1.83 nmol) injected) of the same sequence?
**A.** 96%

**Q.** And the Yolk length ([1]; 1.92 μg (1.83 nmol) injected)?
**A.** 55 ± 11 μm

**Q.** And the “Effect compared with natural, purified oostatic hormone” value [1]?
**A.** same effect as injection of natural, purified oostatic hormone

**Q.** What about the “Activity (sterilization through inhibition of trypsin-like enzyme synthesis)” value [2] of the same sequence?
**A.** Some evidence of activity

**Q.** What about the “Activity (sterilization through inhibition of trypsin-like enzyme synthesis)” value [3] of the same sequence?
**A.** Some evidence of activity

**Q.** And the “Toxicity: death of injected mosquitoes” value [4]?
**A.** none of the injected mosquitoes died

**Q.** For YDPAPPPPPP [analog 1, H2 NYDPAP6 COOH], which “Inhibition of ovarian development” value ([1]; 2.86 nmol injected, analyzed 24 hours later) is on record?
**A.** 98%

**Q.** And the “Inhibition of egg development” value ([1]; 1.20 μg (1.15 nmol) injected)?
**A.** 76%

**Q.** And the Yolk length ([1]; 1.20 μg (1.15 nmol) injected)?
**A.** 82 ± 3 μm

**Q.** What about the “Inhibition of egg development” value ([1]; 2.44 μg (2.33 nmol) injected) of the same sequence?
**A.** 98%

**Q.** What about the Yolk length ([1]; 2.44 μg (2.33 nmol) injected) of the same sequence?
**A.** 53 ± 3 μm

**Q.** What about the “Effect compared with natural, purified oostatic hormone” value [1] of the same sequence?
**A.** same effect as injection of natural, purified oostatic hormone

**Q.** And the “Activity (sterilization through inhibition of trypsin-like enzyme synthesis)” value [2]?
**A.** Some evidence of activity

**Q.** What about the “Activity (sterilization through inhibition of trypsin-like enzyme synthesis)” value [3] of the same sequence?
**A.** Some evidence of activity

**Q.** What about the “Inhibition of trypsin synthesis” value [5] of the same sequence?
**A.** 86%

**Q.** What about the “Inhibition of trypsin synthesis” value [6] of the same sequence?
**A.** 50%

**Q.** And the “Inhibition of trypsin synthesis” value [7]?
**A.** 50%

**Q.** What about the “Inhibition of trypsin synthesis” value [8] of the same sequence?
**A.** 85%

**Q.** And the “Inhibition of trypsin synthesis” value [9]?
**A.** 30%

**Q.** And the “Toxicity: death of injected mosquitoes” value [4]?
**A.** none of the injected mosquitoes died

**Q.** What about the “Loss of activity on standing in mosquito homogenate” value [10] of the same sequence?
**A.** without loss of activity

**Q.** What about the “Inhibition of ovarian development” value [11] of the same sequence?
**A.** 50%

**Q.** And the “Inhibition of ovarian development” value [12]?
**A.** 100%

**Q.** What about the “Inhibition of ovarian development” value [13] of the same sequence?
**A.** 91%
